# Data as given in US11576887B2, “Nitro-oleic acid controlled release platform to induce regional angiogenesis in abdominal wall repair” (University of Pittsburgh—Of the Commonwealth System of …, priority 2017, dated 2023).
# Entries after “also recorded” stand apart in the source; their conditions may differ.
# Key:
# [1] = test system: rat abdominal wall partial thickness defect; assay: Rat abdominal wall partial thickness defect repair, histological assessment of 8 wk explants; type: in vivo, Sprague-Dawley rats
# Method: At 8 wk post-implantation samples were retrieved, fixed in 10% formalin solution for ≥24 h, embedded in paraffin and serially sectioned into specimens 10 μm in thickness. Next, hematoxylin and eosin (H&E) and Masson' trichrome (MT) staining of pre implantation scaffolds and explants were utilized to evaluate: polymeric fiber volume, newly formed tissue, cellular infiltration, and scar area (FIG. 4-FIG. 5). In order to assess the foreign body response a custom-made algorithm, developed in Matlab (Mathwork, Natick Mass.), was utilized to segment and quantify collagen rich areas (FIG. 4G-4H). The algorithm is based on a two-phase iterative process known as k means clustering. In step one, given an integer k and an array of data, k cluster centroids were identified minimizing the total squared Euclidean distance between each pixel and its closest RGB centroid. With k=4, the algorithm segmented each image into 4 color groups corresponding to background, muscle tissue, collagen or de-novo ECM, and scaffold.
# At the macroscopic scale, cross sections were utilized to quantify explant thickness. NIH Image J was utilized to identify the explant central line, draw equi-spaced segments (n=10) perpendicular to this line intersecting the abdominal wall border, and calculate the mean of their lengths. This measure was coupled with in situ explant visual inspection (FIG. 6). […]
# [2] = NO2-OA controlled release in vitro from PLGA microparticles and scaffolds in lipase solution; type: physicochemical
# Method: NO2-OA in microparticles and scaffolds was extracted by dissolving the samples in 200 μL, HFIP with 0.5 pmol NO2−^[13C18]OA internal standard, and extracted three times with 1 mL methanol, each time vortexing and centrifuging at 15,000 xg for 10 min at 4° C. Then, the collected methanol was dried under a stream of nitrogen, reconstituted in 100 μL methanol and analyzed by high performance liquid chromatography-electrospray ionization-tandem mass spectrometry (HPLC-ESI-MS/MS). Controlled release (n=3) of NO2-OA in microparticles (FIG. 1D) and scaffolds (FIGS. 3B) was studied in 50 mM phosphate buffer, pH 7.4 with 0.2 mg/mL porcine lipase at 37° C. Aliquots were collected at various time points, spiked with 15 pmol NO2−^[13C18]OA, 1 mL acetonitrile was added and then, samples were vortexed, centrifuged and analyzed by HPLC-ESI-MS/MS. At each time point a fresh incubating solution was utilized.
# Analysis of NO2-OA was performed by HPLC-ESI-MS/MS. […] NO2-OA was analyzed in negative mode with the following parameters: declustering potential (DP)—75V, collision energy (CE)—35 eV, desolvation temperature of 700° C., and a multiple reaction monitoring (MRM) transition 326.3/46. Quantification of NO2-OA in samples was performed by stable isotopic dilution analysis using a NO2-OA calibration curve in the presence of NO2-[^13C18]OA internal standard (MRM 344.3/46).
# [3] = test system: rat abdominal wall partial thickness defect; assay: Blood vessel morphological assessment (MT staining, CD31/αSMA immunofluorescence) of 8 wk explants; type: in vivo, Sprague-Dawley rats; conditions: rat abdominal wall defect model, 8 wk end-point
# From the text: Adult female Sprague-Dawley rats 10-12 wk old, ˜250 g in weight (Harlan Sprague Dawley Inc., Indianapolis, Ind., USA) were used for the abdominal wall repair procedure. The experiment was designed to assess the effects of NO2-FA controlled release on angiogenesis. Therefore, a partial wall defect was preferred to a full wall defect model, this enabled evaluation of the impact of drug release on the tissue underneath the abdominal wall patch. The surgical protocol was adapted from a procedure previously established Lai et al. Peritoneal Regeneration Induced by an Acellular Bovine Pericardial Patch in the Repair of Abdominal Wall Defects. Journal of Surgical Research 127, 85, 2005. In brief, inhalation of 1.25-2.5% (maintenance-induction) isoflurane with 100% oxygen was adopted as anesthetic. The skin was shaved and the surgical field was prepared by sterilization with povidone-iodine solution, the rats were positioned in dorsal recumbency on a heating blanket, the operating environment was kept sterile during the procedure. […]
# Regional angiogenesis was investigated by combining morphological with topological information. Morphological assessment included quantification of blood vessel/mm^2 and vessel type and was performed with two distinct experiments: histological (FIG. 7, 9) and immunofluorescence assessment (FIG. 8). […]
smiles,measurement,setting,value
"CCCCCCCC/C(=C\CCCCCCCC(=O)O)[N+](=O)[O-] [NO2-OA, 10-nitro-9-trans-octadecenoic acid]",abdominal wall thickness of explants,"[1]; 8 wk, compared with healthy native rat abdominal wall",significantly increased wall thickness
same,fibrotic response,[1]; rat abdominal wall defect model,significantly reduce fibrotic response
same,NO2-OA release profile from PLGA microparticles,"[2]; 50 mM phosphate buffer pH 7.4, 0.2 mg/mL porcine lipase, 37° C, effect of microparticle size",sigmoidal
same,duration of controlled NO2-OA release from PLGA microparticles,"[2]; NO2-OA (1mM), particle size 1-50 μm range",up to 7 days
same,regional angiogenesis / neovascularization,[3],additional effect; also recorded: promotes neovascularization; also recorded: significantly improved regional angiogenesis; also recorded: significantly enhanced regional angiogenesis
